Laboratory results published in the NIST ThermoML archive (doi:10.1016/j.jct.2015.09.018).

Assay: molar heat capacity at constant pressure
Conditions: 101.33 kPa, Crystal 3, relaxation calorimetry

[O-2].[O-2].[Ti+4] [titanium(IV) oxide]
Conditions | molar heat capacity at constant pressure [J/K/mol]
0.5 K | 0.000432
1 K | 0.00103
1.5 K | 0.00196
2 K | 0.00337
2.01 K | 0.00218
2.35 K | 0.00327
2.47 K | 0.00544
2.5 K | 0.00541
2.88 K | 0.00862
3 K | 0.00821
3.5 K | 0.0119
3.72 K | 0.01489
4 K | 0.0165
4.31 K | 0.02048
4.5 K | 0.0221
4.54 K | 0.02277
4.77 K | 0.02538
5 K | 0.0288
5.03 K | 0.02844
5.32 K | 0.03402
5.5 K | 0.0365
5.56 K | 0.03861
5.85 K | 0.04314
6 K | 0.0454
6.14 K | 0.04818
6.46 K | 0.05442
6.5 K | 0.0553
6.84 K | 0.06161
7 K | 0.0662
7.16 K | 0.06852
7.5 K | 0.0782
7.53 K | 0.07958
7.93 K | 0.08951
8 K | 0.0911
8.34 K | 0.1005
8.5 K | 0.105
8.78 K | 0.1124
9 K | 0.12
9.23 K | 0.1263
9.5 K | 0.135
9.74 K | 0.1441
10 K | 0.152
10.23 K | 0.1603
10.79 K | 0.1786
11 K | 0.187
11.34 K | 0.2003
11.93 K | 0.2256
12 K | 0.227
12.55 K | 0.2505
13 K | 0.271
13.2 K | 0.2793
13.91 K | 0.3136
14 K | 0.318
14.6 K | 0.3493
15 K | 0.37
15.37 K | 0.3923
16 K | 0.428
16.16 K | 0.4371
16.99 K | 0.4905
17 K | 0.491
17.87 K | 0.5493
18 K | 0.559
18.78 K | 0.6158
19 K | 0.634
19.77 K | 0.6928
20 K | 0.714
20.78 K | 0.7811
21.84 K | 0.8773
23.01 K | 0.9887
24.2 K | 1.12
25 K | 1.21
25.43 K | 1.26
26.78 K | 1.42
28.14 K | 1.6
29.6 K | 1.8
30 K | 1.85
31.12 K | 2.01
32.74 K | 2.25
34.45 K | 2.52
35 K | 2.62
36.24 K | 2.82
38.12 K | 3.16
40 K | 3.52
40.1 K | 3.54
42.19 K | 3.95
44.41 K | 4.41
45 K | 4.54
46.71 K | 4.93
49.16 K | 5.48
50 K | 5.66
51.71 K | 6.07
54.41 K | 6.71
55 K | 6.87
57.24 K | 7.42
60 K | 8.12
60.22 K | 8.18
63.37 K | 8.97
65 K | 9.38
66.7 K | 9.78
70 K | 10.75
70.19 K | 10.75
73.8 K | 11.78
75 K | 12.2
77.13 K | 12.82
80 K | 13.67
81.7 K | 13.98
85 K | 15.16
85.33 K | 15.22
89.74 K | 16.6
90 K | 16.65
94.38 K | 17.97
95 K | 18.14
99.29 K | 19.28
100 K | 19.6
104.43 K | 20.84
109.84 K | 22.53
110 K | 22.48
115.54 K | 24.21
120 K | 25.26
121.46 K | 25.88
128.44 K | 27.05
130 K | 27.96
134.65 K | 29.35
140 K | 30.55
141.61 K | 31.35
148.86 K | 33.43
150 K | 33.04
156.57 K | 35.12
160 K | 35.43
165.09 K | 36.06
170 K | 37.72
173.67 K | 37.71
180 K | 39.89
182.65 K | 39.71
190 K | 41.95
192.19 K | 41.35
200 K | 43.91
201.69 K | 44.69
210 K | 45.75
212.16 K | 46.49
220 K | 47.49
223.15 K | 48.5
230 K | 49.13
234.7 K | 50.34
240 K | 50.66
246.88 K | 52.02
250 K | 52.11
259.67 K | 53.63
260 K | 53.46
270 K | 54.73
273.07 K | 55.28
273.15 K | 55.11
280 K | 55.92
287.77 K | 56.22
290 K | 57.04
298.15 K | 57.89
300 K | 58.08
302.73 K | 58.1
305 K | 58.58
